# According to publication PMC5161367, “Discovery of Novel Small Molecule Inhibitors of VEGF Expression in Tumor Cells Using a Cell-Based High Throughput Screening Platform” (PLoS ONE, 2016):
# Read-outs that look alike come from different tables or passages of the source.
# Assays:
# [1] = Cytotoxicity, CellTiter-Glo, foreskin fibroblasts; format: cell-based; settings: human, primary foreskin fibroblasts, read-out: Cytotoxicity CC50, Foreskin Fibroblast
# Procedure: (§1) The cytotoxicity of compounds was determined in peripheral blood mononuclear cells (PBMCs) and primary human foreskin fibroblasts, both purchased frozen from AllCells, Inc, CA. Cells were incubated with test compound at various concentrations in triplicate for a period of 3 days in 96-well plates. The cytotoxicity or inhibition of cell proliferation was determined using a standard CellTiter-Glo® Luminescent Cell Viability Assay (Promega, Madison, WI) that measures total cellular adenosine triphosphate (ATP) concentration as a function of cell viability. In addition, cytotoxicity assays were also performed in HeLa cells in parallel with VEGF ELISA to ensure that the inhibition of VEGF production in HeLa cells was not due to cytotoxicity.
# IGF-1 = IGF-1 ELISA in HepG-2 cells under normoxia; format: cell-based; settings: Homo sapiens, HepG2; HepG-2 cells under normoxia (21% oxygen), 48 hours
# Procedure: (§2) Cells were treated with vehicle control (0.5% DMSO) or compounds at the indicated concentration for 48 hours, and specific proteins in conditioned medium were quantified using commercially available ELISA kits (R&D Systems) according to the manufacturer’s recommendations. VEGF was quantified in HeLa cells under hypoxia (1% oxygen); Tumor necrosis factor alpha (TNFα) was quantified in CEM cells stimulated with 1 μg/mL interleukin-1 beta (Sigma); erythropoietin (EPO) was quantified in HepB3 cells under hypoxic conditions (1% oxygen); and granulocyte colony-stimulating factor (G-CSF), basic fibroblast growth factor (FGF-2) and insulin-like growth factor 1 (IGF-1) were quantified without induction in HT1080 cells, HeLa cells and HepG2 cells, respectively.
# Several target proteins were chosen as selectivity counter-screens, including TNF-alpha, FGF-2, G-CSF, IGF-1, and EPO. Similar to that of VEGF, the expression levels of these proteins are post-transcriptionally regulated, either through a 5’-UTR IRES, 3’-UTR AU-rich elements (AREs), or both.
# [2] = Cytotoxicity, CellTiter-Glo, HeLa cells; format: cell-based; settings: human
# Procedure: as §1
# (§3) The IC50 values for compounds that inhibited VEGF production were determined next. A seven-point dose-response analysis was performed for each of the 137 compounds. In parallel, a dose-response cytotoxicity assay was performed to determine the CC50 (the concentration resulting in 50% cellular growth inhibition or cytotoxicity) under the same conditions as VEGF ELISA to determine whether hypoxia-induced VEGF inhibition was due to cytotoxicity.
# [3] = system: membrane bound VEGF (VEGF189 and VEGF206); assay: Western blot of membrane bound VEGF isoforms; format: cell-based, human
# Procedure: Cells were treated with test compounds for the indicated times as shown in the Results section. Whole-cell extracts were obtained by lysing cells in M-PER lysis buffer (Pierce, Rockford, IL) containing 150 mM NaCl, 2 mM EDTA and 1x Halt protease inhibitors (Pierce). Samples were resolved on a Tris-glycine Criterion gel (Bio-Rad) and transferred onto a 0.45 μm nitrocellulose membrane. The membranes were then immunoblotted with specific antibodies as shown in the Results section: antibody (C1) specific for VEGF was purchased from Santa Cruz Biotechnologies (used at 1:200 dilution); and antibody specific for human β-actin was purchased from Abcam (Cambridge, MA) (1:10000 dilution). Immunodetection was done using the corresponding secondary antibodies conjugated with infrared dyes or horseradish peroxidase. The expression levels of proteins were quantified with Odyssey (LI-COR) or using enhanced chemiluminescence (Pierce).
# The effect of PTC-858 on the levels of the soluble and membrane bound VEGF isoforms was characterized. The levels of the soluble VEGF isoforms (VEGF121 and VEGF165) were assessed from conditioned medium as described above. The effect of PTC-858 on the production of the high molecular weight, membrane bound isoforms (VEGF189 and VEGF206), was determined by Western blot analysis using a VEGF specific antibody. β-actin levels were used as an internal loading control. […]
# VEGF = VEGF ELISA, hypoxia-induced VEGF production in HeLa cells; format: cell-based; settings: Homo sapiens; for IC50: HeLa cells under hypoxia, read-out: IC50, inhibition of hypoxia induced VEGF production (VEGF ELISA)
# Procedure: as §2
# A sigmoid dose-response with variable slope regression curve was generated for each compound. The maximal and minimal inhibition values were set at 100% and 0%, respectively. IC50 and CC50 values were automatically calculated after curve fitting by the software.
# Hits from the HTS were then evaluated for their ability to modulate hypoxia-inducible endogenous VEGF expression. HeLa cells were cultured under hypoxic conditions (1% O2, 5% CO2, balanced with nitrogen) in the presence or absence of compound at a concentration of 7.5 μM in duplicate. VEGF protein levels in the conditioned medium were quantified by ELISA. […] Compounds that reduced endogenous hypoxia-induced VEGF by 50% or more at a single concentration of 7.5 μM were further evaluated.
# as §3
# Cyp2C19 = Cyp2C19 (Homo sapiens, UniProt P33261); assay: p450 inhibition Cyp2C19; format: in vitro ADME
# [4] = Body weight in the xenograft study; format: in vivo, mouse; settings: HT1080 xenograft study, 10 and 50 mg/kg
# Procedure: Log phase growing tumor cells (5–10 x 10^6 cells/mouse, depending on the cell line) were implanted subcutaneously in athymic nude mice. When the average tumor size reached the indicated size, mice were randomly divided into groups and administered vehicle (5% DMSO/ 95% PEG-300) or test compounds by oral gavage. Tumor volumes were measured twice per week using digital calipers and body weights once per week. Tumor volume was determined according to the formula: L x (W)^2/2, where L is the longest dimension and W is the shortest dimension.
# Body weight was measured at the indicated time for each mouse until the group average tumor size reached […] and the whole group were then took down. (DOC) Click here for additional data file.
# Body weight was measured at the indicated time for each mouse until the group average tumor size reached […] and the whole group were then took down. Data in this graph represents the average body weight (g) ± SD, n = 10.
# VEGF mRNA UTRs reporter = assay: UTR-selectivity luciferase reporter cell lines (VEGF vs HIF-1α, DPPIV UTRs); format: cell-based, human; settings: HEK 293 luciferase reporter stable cell lines
# Description: (§4) Selective inhibition by PTC-510 of reporter gene expression mediated by VEGF mRNA UTRs. All luciferase reporter stable cell lines used in this study were generated from HEK 293 cells transfected with the luciferase reporter gene flanked with the UTRs derived from each target gene. HIF-1α: hypoxia Inducible Factor 1 alpha; DPPIV: dipeptidyl peptidase IV. (DOC) Click here for additional data file.
# as §4, with “[picture] Selective” for “Selective”, “IV.” for “IV. (DOC) Click here for additional data file.”
# Cyp2C19, sequence (P33261 whole entry): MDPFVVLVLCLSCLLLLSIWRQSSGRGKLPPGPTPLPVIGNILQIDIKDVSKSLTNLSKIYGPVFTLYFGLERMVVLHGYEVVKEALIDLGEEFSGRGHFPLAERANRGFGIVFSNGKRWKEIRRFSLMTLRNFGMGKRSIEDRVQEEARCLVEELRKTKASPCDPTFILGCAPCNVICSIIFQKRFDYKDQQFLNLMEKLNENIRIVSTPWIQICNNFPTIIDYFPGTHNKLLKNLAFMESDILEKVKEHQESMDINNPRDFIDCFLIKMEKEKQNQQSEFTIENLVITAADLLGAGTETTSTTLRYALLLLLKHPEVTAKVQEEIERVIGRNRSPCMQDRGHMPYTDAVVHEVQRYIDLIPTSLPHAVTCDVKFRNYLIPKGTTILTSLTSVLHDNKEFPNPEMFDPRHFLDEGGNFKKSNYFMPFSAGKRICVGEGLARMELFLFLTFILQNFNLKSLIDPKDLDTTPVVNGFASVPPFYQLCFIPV
SMILES,CC50 at 72 hours [1],EC50 (IGF-1),"CC50 at 72 hours ([2]; 72 hours, CellTiter-Glo)","selectivity ratio ([2]; CC50 vs VEGF ELISA IC50, read-out: selective index (CC50/IC50))","effect on level of membrane bound VEGF (Western blot) ([3]; HeLa cells (text b57), β-actin loading control)","EC50 (VEGF; HeLa cells under hypoxia (1% oxygen), 48 hours, read-out: ELISA EC50, VEGF)",IC50 (VEGF),IC50 (Cyp2C19),CC50 at 48 hr ([2]; 48 hr),effect on production of membrane bound VEGF189/206 (Western blot) ([3]; Fig 4c),overt toxicity (body weight loss) [4],VEGF UTR selectivity compared to UTRs of HIF-1α and DPPIV (VEGF mRNA UTRs reporter),"EC50 (VEGF; HeLa cells, read-out: HeLa VEGF ELISA/SAR EC50)","EC90 (VEGF; HeLa cells, read-out: HeLa VEGF ELISA/SAR EC90)"
"Brc1ccc2[nH]c3c(c2c1)CCCC3n1cccc1 (stereo not drawn) [PTC-858, 6-bromo-1-(1H-pyrrol-1-yl)-2,3,4,9-tetrahydro-1H-carbazole]",> 30000 nM,> 30000 nM,1700 nM,> 200,reduced the level of membrane bound VEGF in HeLa cells in a dose-dependent fashion,13 ± 20 nM,7.5 nM,–,–,–,–,–,–,–
"COc1ccc(C2c3[nH]c4ccc(Br)cc4c3CC3C(=O)N(C4CCCCC4)C(=S)N32)cc1.O=C(O)C(F)(F)F (stereo not drawn) [PTC-510, 9-bromo-2-cyclohexyl-5-(4-methoxyphenyl)-3-thioxo-2,3,5,6,11,11a-hexahydro-1H-imidazo[1’,5’:1,6]pyrido[3,4-b]indol-1-one trifluoroacetate]",–,–,–,–,–,–,~6 nM,> 5000 nM,200 nM,inhibits the production of the membrane bound VEGF189/206,No overt toxicity,VEGF UTR selective,6 nM,50 nM
